Source: ChEMBL document CHEMBL4842339, “8-Hydroxyquinolin-2(1H)-one analogues as potential β2-agonists: Design, synthesis and activity study” (Eur J Med Chem, 2021)

Experiments:
[1] = target: Beta-2 adrenergic receptor (Homo sapiens, UniProt P07550); assay: Agonist activity at human beta2 adrenoreceptor overexpressed in HEK293 cells assessed as cAMP accumulation; format: functional, cell-based
[2] = […] agonist activity at beta2 adrenergic receptor isolated from guinea pig tracheal smooth muscle assessed as inhibition of histamine-induced tracheal smooth muscle contraction by measuring maximal relaxant effect relative to control; format: functional; details: Cavia porcellus
[3] = target: Beta-1 adrenergic receptor (Homo sapiens, UniProt P08588); assay: Agonist activity at human beta1 adrenoreceptor overexpressed in HEK293 cells assessed as cAMP accumulation; format: functional, cell-based
[4] = […] agonist activity at beta2 adrenergic receptor isolated from guinea pig tracheal smooth muscle assessed as inhibition of histamine-induced tracheal smooth muscle contraction; format: functional, Cavia porcellus
[5] = organism: Cavia porcellus; assay: Myorelaxant effect in guinea pig model of histamine-induced smooth muscle contraction assessed as time duration of action measured over 12 hrs; format: functional; details: time hrs >12
[6] = organism: Cavia porcellus; assay: Myorelaxant effect in guinea pig model of histamine-induced smooth muscle contraction assessed as time of onset of action measured over 12 hrs; format: functional

Beta-2 adrenergic receptor, sequence (P07550 whole entry): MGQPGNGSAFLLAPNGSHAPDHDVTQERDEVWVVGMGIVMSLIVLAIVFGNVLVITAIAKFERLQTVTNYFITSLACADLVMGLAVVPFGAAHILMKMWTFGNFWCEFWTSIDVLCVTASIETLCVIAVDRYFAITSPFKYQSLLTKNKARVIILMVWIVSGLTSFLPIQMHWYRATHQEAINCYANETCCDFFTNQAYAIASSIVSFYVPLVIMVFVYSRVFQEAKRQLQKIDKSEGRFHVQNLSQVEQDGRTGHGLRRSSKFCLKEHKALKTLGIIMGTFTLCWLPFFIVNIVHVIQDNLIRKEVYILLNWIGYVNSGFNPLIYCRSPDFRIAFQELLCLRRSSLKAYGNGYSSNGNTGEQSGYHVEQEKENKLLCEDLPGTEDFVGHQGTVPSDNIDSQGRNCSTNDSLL
Beta-1 adrenergic receptor, sequence (P08588 whole entry): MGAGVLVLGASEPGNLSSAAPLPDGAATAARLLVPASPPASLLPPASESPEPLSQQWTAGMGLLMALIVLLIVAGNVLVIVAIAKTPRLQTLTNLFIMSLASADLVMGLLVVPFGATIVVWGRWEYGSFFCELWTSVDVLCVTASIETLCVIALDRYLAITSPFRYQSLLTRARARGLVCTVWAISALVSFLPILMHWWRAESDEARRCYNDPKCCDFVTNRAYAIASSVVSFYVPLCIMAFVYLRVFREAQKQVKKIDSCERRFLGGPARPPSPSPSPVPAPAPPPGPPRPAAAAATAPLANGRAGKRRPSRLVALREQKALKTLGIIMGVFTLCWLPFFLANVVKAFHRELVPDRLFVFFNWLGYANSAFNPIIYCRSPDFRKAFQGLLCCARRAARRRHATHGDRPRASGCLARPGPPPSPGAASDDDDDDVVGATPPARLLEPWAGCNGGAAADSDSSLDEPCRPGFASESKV

Row | Structure (SMILES) | EC50 [1] [nM] | Emax [2] [%] | EC50 [3] [nM] | pD2 [4] | Time [5] [h] | Time [6] [min]
1 | O=c1ccc2c(C(O)CNCCCc3cccc(F)c3)ccc(O)c2[nH]1 (stereo unspecified) | 0.0245 | – | – | – | – | –
2 | CC(CCc1ccc(O)cc1)NCC(O)c1ccc(O)c2[nH]c(=O)ccc12 (stereo unspecified) | 0.0107 | 71.3 | – | – | – | –
3 | CC(CCc1cccc(Cl)c1)NCC(O)c1ccc(O)c2[nH]c(=O)ccc12 (stereo unspecified) | 0.0724 | 105 | – | – | – | –
4 | Cc1ccccc1CCC(C)NCC(O)c1ccc(O)c2[nH]c(=O)ccc12 (stereo unspecified) | – | – | 6.76 | – | – | –
5 | COc1ccccc1CC[C@@H](C)NC[C@H](O)c1ccc(O)c2[nH]c(=O)ccc12 | 0.0288 | – | – | – | – | –
6 | Cc1ccccc1CCC(C)(C)NCC(O)c1ccc(O)c2[nH]c(=O)ccc12 (stereo unspecified) | 0.0178 | – | – | – | – | –
7 | COc1ccc(CCC(C)(C)NCC(O)c2ccc(O)c3[nH]c(=O)ccc23)cc1.Cl (stereo unspecified) | 0.0309 | 161 | 7.76 | 7.86 | – | –
8 | CC(CCc1cccc(O)c1)NCC(O)c1ccc(O)c2[nH]c(=O)ccc12 (stereo unspecified) | 0.0135 | – | – | – | – | –
9 | CC(CCc1ccc(Cl)cc1)NCC(O)c1ccc(O)c2[nH]c(=O)ccc12 (stereo unspecified) | – | – | 6.31 | – | – | –
10 | CC(C)(CCc1cccc(O)c1)NCC(O)c1ccc(O)c2[nH]c(=O)ccc12.Cl (stereo unspecified) | 0.0182 | 103 | 2.4 | 6.37 | – | –
11 | COc1ccccc1CCC(C)NCC(O)c1ccc(O)c2[nH]c(=O)ccc12 (stereo unspecified) | 0.0148 | – | – | – | – | –
12 | Cc1cccc(CCC(C)(C)NCC(O)c2ccc(O)c3[nH]c(=O)ccc23)c1 (stereo unspecified) | – | 152 | 2.63 | – | – | –
13 | CC(C)(CCc1cccc(Cl)c1)NCC(O)c1ccc(O)c2[nH]c(=O)ccc12.Cl (stereo unspecified) | – | – | – | – | >12 | 3.43
14 | COc1ccccc1CCC(C)(C)NCC(O)c1ccc(O)c2[nH]c(=O)ccc12 (stereo unspecified) | 0.0224 | 141 | – | – | – | –
15 | Cc1ccccc1CCCNCC(O)c1ccc(O)c2[nH]c(=O)ccc12.Cl (stereo unspecified) | 0.0575 | 125 | 17 | 7.72 | – | –
16 | COc1ccc(CCC(C)NCC(O)c2ccc(O)c3[nH]c(=O)ccc23)cc1.Cl (stereo unspecified) | 0.0182 | 104 | 44.7 | 7.48 | – | –
17 | CC(CCc1ccccc1Cl)NCC(O)c1ccc(O)c2[nH]c(=O)ccc12.Cl (stereo unspecified) | 0.0339 | 95.3 | 4.57 | 7.87 | – | –
18 | COc1cccc(CCC(C)NCC(O)c2ccc(O)c3[nH]c(=O)ccc23)c1.Cl (stereo unspecified) | 0.0214 | 196 | 2.57 | 7.33 | >12 | 4.97

Row | Structure (SMILES) | EC50 [1] [nM] | Emax [2] [%] | EC50 [3] [nM] | pD2 [4] | Time [5] [h] | Time [6] [min]
19 | COc1cccc(CCC(C)(C)NCC(O)c2ccc(O)c3[nH]c(=O)ccc23)c1 (stereo unspecified) | – | 112 | 7.59 | – | – | –
20 | COc1cc(CCC(C)NCC(O)c2ccc(O)c3[nH]c(=O)ccc23)cc(OC)c1OC (stereo unspecified) | – | 141 | 35.5 | – | – | –
21 | Cc1ccc(CCC(C)(C)NCC(O)c2ccc(O)c3[nH]c(=O)ccc23)cc1 (stereo unspecified) | – | – | 24.5 | – | – | –
22 | Cc1ccc(CCC(C)NCC(O)c2ccc(O)c3[nH]c(=O)ccc23)cc1.Cl (stereo unspecified) | 0.038 | 95.9 | 10.5 | 7.58 | – | –
23 | COc1cc(CCCNCC(O)c2ccc(O)c3[nH]c(=O)ccc23)cc(OC)c1OC.Cl (stereo unspecified) | 0.0832 | 111 | 10000 | 7.74 | – | –
24 | CC(CCc1cccc(F)c1)NCC(O)c1ccc(O)c2[nH]c(=O)ccc12 (stereo unspecified) | – | 163 | 3.09 | – | – | –
25 | CC(CCc1ccc(F)cc1)NCC(O)c1ccc(O)c2[nH]c(=O)ccc12 (stereo unspecified) | 0.0282 | 100 | – | – | – | –
26 | CC(C)(CCc1ccccc1Cl)NCC(O)c1ccc(O)c2[nH]c(=O)ccc12 (stereo unspecified) | – | 124 | 1.74 | – | – | –
27 | Cc1cccc(CCCNCC(O)c2ccc(O)c3[nH]c(=O)ccc23)c1.Cl (stereo unspecified) | 0.038 | 144 | 14.5 | 7.66 | – | –
28 | O=c1ccc2c(C(O)CNCCCc3cc(F)cc(F)c3)ccc(O)c2[nH]1 (stereo unspecified) | 0.0214 | – | – | – | – | –
29 | O=c1ccc2c(C(O)CNCCCc3cccc(C(F)(F)F)c3)ccc(O)c2[nH]1 (stereo unspecified) | 0.0282 | – | – | – | – | –
30 | Cc1cccc(CCC(C)NCC(O)c2ccc(O)c3[nH]c(=O)ccc23)c1 (stereo unspecified) | – | – | 4.07 | – | – | –
31 | Cc1ccc(CCCNCC(O)c2ccc(O)c3[nH]c(=O)ccc23)cc1 (stereo unspecified) | 0.0955 | – | – | – | – | –
32 | Cl.O=c1ccc2c(C(O)CNCCCc3ccc(F)cc3)ccc(O)c2[nH]1 (stereo unspecified) | 0.0468 | 153 | 16.2 | 7.39 | – | –
33 | CC(C)NCC(O)c1ccc(O)c(O)c1 (stereo unspecified) [ISOPROTERENOL] | – | 181 | – | – | – | 3.1
34 | COc1ccc(CC(C)(C)NC[C@H](O)c2cc(O)cc3c2OCC(=O)N3)cc1 [OLODATEROL] | – | 170 | 123 | – | – | 2.31
35 | OCc1cc(C(O)CNCCCCCCOCCCCc2ccccc2)ccc1O (stereo unspecified) [SALMETEROL] | – | 172 | – | – | – | 4.23
